Structures are written as SMILES.

The text below walks through data of patent US20050123604A1, “Pharmaceutical compositions” (priority 2002, published 2005).

A short description of data set [1]: blood plasma half life after oral administration. As to conditions: oral administration of immediate release composition. The format is in vivo. An excerpt: The pharmaceutical compositions useful in the practice of the invention are for oral administration and are “immediate release” dosage forms. That is, the pharmaceutical compositions useful in the practice of the invention have neither the pharmacokinetic nor physical characteristics of extended release pharmaceutical dosage forms. Thus, a pharmaceutical composition useful in the practice of the invention, if in solid form, will disintegrate or dissolve rapidly, preferably within one hour of administration, and administration of a pharmaceutical composition useful in the practice of the invention will result in a rapid rise in the blood plasma concentration of 5-methyl-2-(2′-chloro-6′-fluoroanilino)phenylacetic acid. Preferably, the blood plasma concentration of 5-methyl-2-(2′-chloro-6′-fluoroanilino)phenylacetic acid will reach a maximum within two to six hours after oral administration and will then fall rapidly due to the relatively short (3 to 6 hour) half life of 5-methyl-2-(2′-chloro-6′-fluoroanilino)phenylacetic acid.

The nature of data set [2]: chemical stability of drug substance in tablets as a function of residual moisture (LOD). The class given is physicochemical. The following applies: LOD kept at about 2.1%-4.5% (200 mg tablets) or about 1.7%-3.5% (400 mg, 65% drug-loaded tablets). As to the method:
That is, certain degradation products of 5-methyl-2-(2′-chloro-6′-fluoroanilino)phenylacetic acid are formed at a greater rate in dryer tablets, which is contrary to the typical behavior of drug substances. In general, moisture, in the form of water, is detrimental to drug stability, and packaging for pharmaceutical formulations frequently contains some form of desiccant material to minimize moisture levels.
Tablets with about 200 mg of active agent preferably have an LOD of 3.5% with a desirable range between about 2.1% and about 4.5%. 65% drug-loaded tablets with about 400 mg of active agent preferably have an LOD of about 2.5%, with a desirable range between about 1.7% and about 3.5%.
The compositions and methods of the invention provide solid pharmaceutical compositions for oral administration comprising 5-methyl-2-(2′-chloro-6′-fluoroanilino)phenylacetic acid with minimal levels of total degradation products Oral dosage levels for 5-methyl-2-(2′-chloro-6′-fluoroanilino)phenylacetic acid are of the order of between about 200 and about 1200 mg per patient per day. In a preferred embodiment, the effective amount is between about 200 and about 800 mg. In a more preferred embodiment, the effective amount is between about 200 and about 600 mg. In an even more preferred embodiment, the effective amount is between about 200 and about 400 mg. […]

As usually defined, the half-life is the time needed for the level to fall by half in the phase considered. High values mean slow decline, low ones rapid decline. In data set [1], `Cc1ccc(Nc2c(F)cccc2Cl)c(CC(=O)O)c1` [5-methyl-2-(2′-chloro-6′-fluoroanilino)phenylacetic acid] gave a half-life of 3 to 6 h. The “chemical stability of the active agent in tablets” value in data set [2] is on record as “more chemically stable”.
